Laboratory results from patent US8389739B1, “Modulators of retinoid-related orphan receptor gamma” (Orphagen Pharmaceuticals, priority 2006, dated 2013).
Where two headings read alike, the source gives them in different places.

Legend:
mRORγ LBD = target: T1, mRORγ LBD (Mus musculus, UniProt P51450); test: Biochemical assay, coregulatory peptide recruitment to GST-RORγ LBD (FRET)
T1 construct: made in house; host or cells: Sf9 insect cells, baculovirus; cleared lysate used directly
T1 sequence (P51450 251-516): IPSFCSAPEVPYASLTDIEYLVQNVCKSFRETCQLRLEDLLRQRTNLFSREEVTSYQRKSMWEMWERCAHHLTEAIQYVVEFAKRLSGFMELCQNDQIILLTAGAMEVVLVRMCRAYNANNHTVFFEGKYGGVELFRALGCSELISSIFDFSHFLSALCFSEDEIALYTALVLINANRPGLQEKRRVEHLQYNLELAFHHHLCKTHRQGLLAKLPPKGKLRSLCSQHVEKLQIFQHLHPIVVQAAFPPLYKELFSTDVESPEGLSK
Text: GST-RORγ was generated by subcloning the RORγ-LBD into pET-41a, a vector which expresses GST fusion proteins in bacteria.
The cloning steps for GST-RORγ were as follows. The mRORγ LBD was excised from Gal4-mRORγ (see above for cloning steps) at BamHI and HindIII sites of Sequence 1 and cloned into the corresponding sites of pET-41a(+) (EMD Biosciences, San Diego, Calif.). A GST-mRORγ fragment was then excised from pET-41a(+) at XbaI and XhoI sites and cloned into a pcDNA3.1vector (Invitrogen, Carlsbad, Calif.) restricted at NheI and XhoI sites. Plasmid GST-mRORγ-pcDNA3.1 was used as a PCR template to generate a GST-mRORγ fragment that was later cloned into pENTR/D-TOPO vector (Invitrogen, Carlsbad, Calif.) by standard cloning techniques recommended by the manufacturer of the vector. The nucleotide sequence of GST-mRORγ is shown below:
For baculoviral expression of RORγ, the cDNA fragment of GST-RORγ— LBD, was subcloned from pET-41a into the pENTR/D-TOPO vector using a commercially-available kit (BaculoDirect, Invitrogen). Briefly, GST-RORγ carried by pENTR/D-TOPO was transfected into mono-layer Sf9 cells (8×10^5/well in 6-well plates) by Cellfectin (Invitrogen). Sf9 cells were incubated at 27° C. in a non-humidified incubator for 72 hours. Cell media was collected as P1 viral stock and used to further infect Sf9 cells to generate P2 and P3 virus. […] A plaque assay was performed to determine the titer of P3 virus and to isolate single plaques. P4 virus was generated from a single plaque and propagated on a larger scale.
Adherent SF9 cells were infected with baculovirus carrying GST-RORγ and were cultured for 72 hours. Sf9 cell were then subject to a brief sonication in a lysis buffer (20 mM phosphate, pH 6.8, 50 mM KCl, 50 mM NaCl, 0.5 mM EDTA, 50% glycerol, 0.001% NP-40 and 1 mM DTT) and centrifuged at 3000 rpm for 15 minutes. […] Cleared cell lysate was stored at −70° C. and is directly utilized in the coregulatory peptide recruitment assay.
The labeled probes anti-GST-APC and SA-RPE were purchased from Prozyme (San Leandro, Calif.). Compounds were added directly from a DMSO solution to a final concentration of 1-2% DMSO. Fluorescence was measured on a Wallac Victor 2 V plate reader equipped with a 670/40 nm filter (Omega Optical, Brattleboro, Vt.) for APC emission (Channel A) and a 600/25 bandpass filter for monitoring the RPE emission (Channel B).

mRORγ = target: T2, mRORγ (Mus musculus, UniProt P51450); test: Transcriptional assay, Gal4-mRORγ with luciferase reporter in CHO cells; assay type: cell-based
T2 construct: expressed in transfected cells; host or cells: CHO cells, transient transfection
Protocol: The complete Gal4-mRORγ nucleotide sequence is shown below:
(§1) A firefly luciferase reporter gene for Gal4 DBD hybrid receptors, such as Gal4-RORγ, contains five copies of the Gal4 17-mer response element in its promoter and the coding sequence for firefly luciferase (pG5-luc, Promega). CHO (Chinese Hamster Ovary) cells were cultured in Ham's F12 medium supplemented with 10% fetal calf serum (Gemini Biologicals), 10 μg/ml penicillin and streptomycin, and were maintained in a humidified 37° C. incubator (Thermo Electron, Steri-Cycle) with 5% CO2. 24 hours before transfection, cells were plated in T175 flasks (5×10^6 cells/flask) or T75 flasks (1.7×10^6 cells/flask). Transient transfection of CHO cells was performed using TransIT-CHO reagents (Minis, Madison, Wis.) with a mixing ratio of 2:6:1 between plasmid DNA (in μg), TransIT-CHO (in μl) and CHO-mojo (in μl).
(§2) Plates are maintained at 37° C. in a humidified atmosphere with 7% CO2 overnight. Four (4) hours after cell seeding, compounds dissolved in DMSO at 10 mM were added to cells at final concentrations of 20 micromolar (μM) to 20 nanomolar (nM) in 0.2% DMSO in triplicate plates. Approximately 40 hours later, cytotoxicity in the assay well was characterized by addition of the dye resazurin (O'Brien, Wilson et al. 2000) to a final concentration of 3 μM. […] Percent viability was determined as 2 hour fluorescence, minus background at t=0 hours, normalized to DMSO controls. For detection of luciferase activity, media was removed from plates after the measurement of resazurin conversion, and SteadyLite luciferase reagent (Perkin-Elmer) was added (30 μl/well). Luminescence is detected with a Victor 2-V plate reader (Perkin-Elmer) and normalized to luciferase activity of DMSO control wells alone.

[1] = target: T3, mLXRα (Liver X receptor alpha) (Mus musculus, UniProt Q9Z0Y9); test: Transcriptional assay of LXRα (Gal4-LXRα hybrid); assay type: cell-based; settings: for EC50: Table 7, no unit printed for this column (b114 gives 1.5 μM for OR-1050), read-out: Transcriptional Assay of LXRα EC50; for specificity for RORγ versus LXRα: comparison of transcriptional assays for RORγ and LXRα (Table 7)
T3 construct: 172-455; expressed in transfected cells; host or cells: CHO cells, transient transfection
T3 sequence (Q9Z0Y9 172-445 limits assumed): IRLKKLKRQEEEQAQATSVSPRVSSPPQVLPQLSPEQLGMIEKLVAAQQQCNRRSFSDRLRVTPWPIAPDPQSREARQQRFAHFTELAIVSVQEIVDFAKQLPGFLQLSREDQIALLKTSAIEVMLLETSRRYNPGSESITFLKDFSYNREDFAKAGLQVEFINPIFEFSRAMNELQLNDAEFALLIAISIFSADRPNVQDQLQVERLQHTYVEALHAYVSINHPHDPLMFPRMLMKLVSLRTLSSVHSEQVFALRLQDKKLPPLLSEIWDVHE
Protocol: as §1, §2
A transcriptional assay for LXRα, using a Gal4-LXRα hybrid, was implemented in order to compare RORγ ligand potencies. In addition to LXRα, transcriptional assays for a number of other major nuclear receptors were developed.

[2] = Table 1, mRORγ and peptide K1, read-out: Assay EC50 in micromolar at mRORγ Biochemical
[3] = Table 7, taken from Table 1 (peptide K1), read-out: Assay EC50 in micromolar at mRORγ Biochemical
[4] = Table 1, antagonists, inhibition of basal Gal4-mRORγ transcription in CHO cells, read-out: Assay EC50 in micromolar at mRORγ Transcriptional
[5] = Table 7, taken from Table 1, read-out: Assay EC50 in micromolar at mRORγ Transcriptional
[6] = Table 2, agonists, antagonist OR-376 (1.5 μM) added to reduce basal transcriptional activity, read-out: EC50 in micromolar at mRORγ Transcriptional
[7] = Table 2, agonists, biotinylated peptide K, 50% of estimated maximum FRET signal, read-out: EC50 in micromolar at mRORγ Biochemical

T2 sequence (P51450 with tags, fused parts or gaps): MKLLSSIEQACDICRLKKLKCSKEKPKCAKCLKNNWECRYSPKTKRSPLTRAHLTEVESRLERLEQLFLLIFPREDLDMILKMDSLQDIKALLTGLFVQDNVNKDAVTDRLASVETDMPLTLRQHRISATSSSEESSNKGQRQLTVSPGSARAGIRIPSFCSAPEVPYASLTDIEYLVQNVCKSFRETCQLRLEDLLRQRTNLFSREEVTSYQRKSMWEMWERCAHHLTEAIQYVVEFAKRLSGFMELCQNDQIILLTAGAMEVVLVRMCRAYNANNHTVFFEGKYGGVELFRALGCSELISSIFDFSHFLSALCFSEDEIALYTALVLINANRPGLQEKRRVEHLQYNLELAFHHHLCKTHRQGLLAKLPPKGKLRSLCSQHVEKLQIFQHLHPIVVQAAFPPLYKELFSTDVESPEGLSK

CCCCc1ccc(S(=O)(=O)N(CC)c2ccc(C(O)(C(F)(F)F)C(F)(F)F)cc2)cc1 [OR-1047, 4-Butyl-N-ethyl-N-[4-(2,2,2-trifluoro-1-hydroxy-1-trifluoromethyl-ethyl)-phenyl]-benzenesulfonamide]
EC50 (mRORγ LBD; [2]): 5.8 µM | EC50 (mRORγ LBD; [3]): 5.8 µM | EC50 (mRORγ; [4]): 3.6 µM | EC50 (mRORγ; [5]): 3.6 µM | Emax [1]: < 5% | EC50 [1]: > 20 µM | specificity for RORγ versus LXRα [1]: more specific for RORγ than LXRα

CC(=O)CCC(C)C1CCC2C3CC(O)C4CC(O)CCC4(C)C3CCC12C (centres unmarked) [OR-12870, 5-(3,6-Dihydroxy-10,13-dimethyl-hexadecahydro-cyclopenta[a]phenanthren-17-yl)-hexan-2-one]
EC50 (mRORγ; [6]): 4.1 µM

CC(CCC(=O)N1CCCCC1)C1CCC2C1CCC1C3CCC(O)CC3C(O)CC21 (centres unmarked) [OR-12869, 4-(3,6-Dihydroxy-hexadecahydro-cyclopenta[a]phenanthren-17-yl)-1-piperidin-1-yl-pentan-1-one]
EC50 (mRORγ; [6]): > 20 µM

CNC(=O)CCC(C)C1CCC2C1CCC1C3CCC(O)CC3C(O)CC21 (centres unmarked) [OR-12867, 4-(3,6-Dihydroxy-hexadecahydro-cyclopenta[a]phenanthren-17-yl)-pentanoic acid methylamide]
EC50 (mRORγ; [6]): > 20 µM

CCN(c1ccc(C(O)(C(F)(F)F)C(F)(F)F)cc1)S(=O)(=O)c1ccc(Br)cc1 [OR-1048, 4-Bromo-N-ethyl-N-[4-(2,2,2-trifluoro-1-hydroxy-1-trifluoromethyl-ethyl)-phenyl]-benzene sulfonamide]
EC50 (mRORγ LBD; [2]): 0.42 µM | EC50 (mRORγ LBD; [3]): 0.42 µM | EC50 (mRORγ; [4]): 0.12 µM | EC50 (mRORγ; [5]): 0.12 µM | Emax [1]: > 80% | EC50 [1]: 0.57 µM | specificity for RORγ versus LXRα [1]: more specific for RORγ than LXRα

CC(CCC(=O)N(C)C)C1CCC2C3CC(O)C4CC(O)CCC4(C)C3CCC12C (centres unmarked) [OR-12868, 4-(3,6-Dihydroxy-10,13-dimethyl-hexadecahydro-cyclopenta[a]phenanthren-17-yl)-pentanoic acid dimethylamide]
EC50 (mRORγ LBD; [7]): 0.56 µM | EC50 (mRORγ; [6]): 5.2 µM

O=C(O)CN(c1ccc(C(O)(C(F)(F)F)C(F)(F)F)cc1)S(=O)(=O)c1ccccc1 [OR-1046, {Benzenesulfonyl-[4-(2,2,2-trifluoro-1-hydroxy-1-trifluoromethyl-ethyl)-phenyl]-amino}-acetic acid]
EC50 (mRORγ LBD; [2]): > 100 µM | EC50 (mRORγ LBD; [3]): > 100 µM | EC50 (mRORγ; [4]): > 20 µM | EC50 (mRORγ; [5]): > 20 µM | Emax [1]: < 5% | EC50 [1]: > 100 µM

CC(CCC(=O)O)C1CCC2C1CCC1C3CCC(O)CC3C(O)CC21 (centres unmarked) [OR-412, 4-(3,6-Dihydroxy-hexadecahydro-cyclopenta[a]phenanthren-17-yl)-pentanoic acid]
EC50 (mRORγ LBD; [7]): > 100 µM | EC50 (mRORγ; [6]): > 20 µM

CC(O)CCC(C)C1CCC2C3CC(O)C4CC(O)CCC4(C)C3CCC12C (centres unmarked) [OR-12871, 17-(4-Hydroxy-1-methyl-pentyl)-10,13-dimethyl-hexadecahydro-cyclopenta[a]phenanthrene-3,6-diol]
EC50 (mRORγ LBD; [7]): 0.25 µM | EC50 (mRORγ; [6]): 8.3 µM

COC(=O)CCC(C)C1CCC2C3CC(O)C4CC(O)CCC4(C)C3CCC12C (centres unmarked) [OR-942, 4-(3,6-Dihydroxy-10,13-dimethyl-hexadecahydro-cyclopenta[a]phenanthren-17-yl)-pentanoic acid methyl ester]
EC50 (mRORγ LBD; GST-RORγ and peptide K, in the presence of antagonist T0901317 (FIG. 5), read-out: estimated EC50 in biochemical assay, shifted by antagonist): 4 µM | EC50 (mRORγ LBD; GST-RORγ and peptide K, without T0901317 (FIG. 5), read-out: estimated EC50 in biochemical assay): 0.4 µM | EC50 (mRORγ LBD; [7]): 0.12 µM | EC50 (mRORγ; [6]): 1.5 µM | activation of RORγ transcriptional activity (mRORγ; in the presence of one micromolar antagonist T0901317, CHO cells (FIG. 4A)): approximately 8 fold

CC(CCC(C)(C)O)C1CCC2C3CC(O)C4CC(O)CCC4(C)C3CCC12C (centres unmarked) [OR-12865, 17-(4-Hydroxy-1,4-dimethyl-pentyl)-10,13-dimethyl-hexadecahydro-cyclopenta[a]phenanthrene-3,6-diol]
EC50 (mRORγ LBD; [7]): 0.21 µM | EC50 (mRORγ; [6]): 8.3 µM

COC(C)(C)CCC(C)C1CCC2C3CC(O)C4CC(O)CCC4(C)C3CCC12C (centres unmarked) [OR-12866, 17-(4-Methoxy-1,4-dimethyl-pentyl)-10,13-dimethyl-hexadecahydro-cyclopenta[a]phenanthrene-3,6-diol]
EC50 (mRORγ LBD; [7]): 0.14 µM | EC50 (mRORγ; [6]): 0.56 µM

CC(CCCO)C1CCC2C3CC(O)C4CC(O)CCC4(C)C3CCC12C (centres unmarked) [OR-12863, 17-(4-Hydroxy-1-methyl-butyl)-10,13-dimethyl-hexadecahydro-cyclopenta[a]phenanthrene-3,6-diol]
EC50 (mRORγ LBD; [7]): 0.67 µM | EC50 (mRORγ; [6]): 4.1 µM

COCCCC(C)C1CCC2C3CC(O)C4CC(O)CCC4(C)C3CCC12C (centres unmarked) [OR-12864, 17-(4-Methoxy-1-methyl-butyl)-10,13-dimethyl-hexadecahydro-cyclopenta[a]phenanthrene-3,6-diol]
EC50 (mRORγ LBD; [7]): 0.23 µM | EC50 (mRORγ; [6]): 6 µM

C[C@@H]1CC[C@@]2(OC1)O[C@H]1C[C@H]3[C@@H]4CC[C@H]5C[C@@H](O)CC[C@]5(C)[C@H]4C(=O)[C@@H](O)[C@]3(C)[C@H]1[C@@H]2C [OR-345, 5α, 20α, 22α, 25D-SPIROSTAN-3β, 12β-DIOL-11-ONE]
EC50 (mRORγ LBD; Table 3, peptide K and 1 μM OR-942, inhibition of the OR-942 baseline by 50%, read-out: Assay EC50 in micromolar biochemical): 12.7 µM | EC50 (mRORγ; Table 3, steroidal antagonists, read-out: Assay EC50 in micromolar transcriptional): 5 µM
